Measurements taken from US11999727B2 (Tango Therapeutics, Inc., priority 2020, dated 2024).

Assays:
[1] = biological target: T1, PRMT5 (Homo sapiens, UniProt O14744); experiment: PRMT5 biochemical IC50 assay with SAM as cofactor; details: PRMT5, SAM as cofactor; read-out: SAM IC50
T1 construct: purchased Viva (custom protein)

[2] = biological target: T1, PRMT5; experiment: PRMT5 biochemical IC50 assay with no cofactor; details: PRMT5, no cofactor
From the text: Table 1 indicates IC50 values (μM) against PRMT5 for exemplary compounds in the presence of SAM as cofactor, with no cofactor, and with MTA as cofactor, respectively (columns 4-6). […] Ki values can be calculated from the IC50 values as described in the Examples section. As detailed in the Examples section, for the assay performed in the presence of SAM, IC50=Ki×1.5 (Ki=IC50/1.5).

[3] = biological target: T1, PRMT5; experiment: PRMT5 biochemical IC50 assay with MTA as cofactor; details: PRMT5, MTA as cofactor; read-out: MTA IC50
[4] = tested on: HAP1 MTAP-intact cell line; experiment: SDMA in-cell western assay, HAP1 MTAP-intact; assay type: cell-based; details: Homo sapiens, HAP1, SDMA in-cell western, HAP1 MTAP-intact; read-out: MTAP HAP1 intact IC50
How it was run: (§1)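 Isogenic HAP1 pair: the MTAP-intact line expresses endogenous MTAP, and the deleted line is MTAP-null. Symmetric dimethylarginine was detected by in-cell western and IC50 values derived for each line.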

[5] = tested on: HAP1 MTAP-deleted cell line; experiment: SDMA in-cell western assay, HAP1 MTAP-deleted; assay type: cell-based; details: for IC50: Homo sapiens, HAP1, SDMA in-cell western, HAP1 MTAP-deleted; for MTAP intact/deleted ratio: SDMA in-cell western
How it was run: as §1

[6] = tested on: HAP1 MTAP-deleted cell line; experiment: Viability assay, MTAP-deleted cell line; assay type: cell-based; details: Homo sapiens, read-out: HAP1 MTAP deleted viability
From the text: Table 1 additionally indicates IC50 values in a viability assay for the MTAP-deleted cell line (column 10), indicating the effect of treatment with compound on cell survival.

[7] = read-out: HAP 1 MTAP deleted IC50
[8] = IC50 ratio HAP1 MTAP-intact / HAP1 MTAP-deleted
[9] = HAP1, viability assay, MTAP-deleted cell line
[10] = read-out: No Cofactor/ rel IC50
[11] = read-out: HAP1 MTAP deleted IC50
[12] = HAP1, viability IC50, MTAP-deleted cell line

T1 sequence (O14744 whole entry): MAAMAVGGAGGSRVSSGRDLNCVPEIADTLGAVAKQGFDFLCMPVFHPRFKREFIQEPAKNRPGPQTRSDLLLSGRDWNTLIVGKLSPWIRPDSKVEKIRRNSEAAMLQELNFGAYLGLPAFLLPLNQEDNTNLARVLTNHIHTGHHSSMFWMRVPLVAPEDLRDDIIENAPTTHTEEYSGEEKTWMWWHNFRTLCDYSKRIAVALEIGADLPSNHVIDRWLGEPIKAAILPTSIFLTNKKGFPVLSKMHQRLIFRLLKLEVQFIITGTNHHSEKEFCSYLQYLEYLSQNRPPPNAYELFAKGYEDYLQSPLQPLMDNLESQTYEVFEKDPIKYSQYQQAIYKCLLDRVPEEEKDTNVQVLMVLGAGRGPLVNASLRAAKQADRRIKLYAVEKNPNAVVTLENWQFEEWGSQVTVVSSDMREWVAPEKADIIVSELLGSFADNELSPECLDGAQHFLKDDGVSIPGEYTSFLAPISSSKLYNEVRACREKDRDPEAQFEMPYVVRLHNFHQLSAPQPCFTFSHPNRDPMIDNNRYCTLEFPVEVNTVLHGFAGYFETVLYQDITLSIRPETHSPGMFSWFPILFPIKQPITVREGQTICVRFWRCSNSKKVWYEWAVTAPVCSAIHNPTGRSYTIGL
T1 sequence (Q9BQA1 whole entry partner): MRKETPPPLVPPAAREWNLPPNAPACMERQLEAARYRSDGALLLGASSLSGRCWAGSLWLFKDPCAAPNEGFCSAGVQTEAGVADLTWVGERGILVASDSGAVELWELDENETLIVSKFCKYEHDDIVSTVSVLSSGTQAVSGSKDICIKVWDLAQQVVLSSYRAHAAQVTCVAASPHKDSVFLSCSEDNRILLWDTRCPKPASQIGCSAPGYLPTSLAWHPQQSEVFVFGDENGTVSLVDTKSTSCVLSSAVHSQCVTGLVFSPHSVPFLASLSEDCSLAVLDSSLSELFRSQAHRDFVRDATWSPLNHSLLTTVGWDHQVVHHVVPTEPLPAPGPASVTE

IC50 [1] | IC50 ([2]; read-out: No Cofactor/rel IC50) | IC50 [3] | IC50 [4] | IC50 [5, 7] | IC50 [2, 10] | IC50 [5, 11] | SMILES | MTAP intact/deleted ratio [5, 8] | IC50 [6, 9] | MTAP intact/deleted ratio ([5]; IC50 ratio HAP1 MTAP-intact vs HAP1 MTAP-deleted) | IC50 [6, 12] | IC50 ([6]; HAP1, viability assay, HAP1 MTAP-deleted)
> 0.5 µM | 0.05 to 0.5 µM | < 0.05 µM | > 1 µM | 0.1 to 1 µM |  |  | Cc1cc(NC(=O)C(=O)N2C[C@@H](C)CC[C@@H]2c2ccc3c(c2)CCNC3=O)cnc1N (single isomer, unassigned) [Compound 988] | A (an IC50 ratio greater than or equal to 10 fold) | 1 to 10 µM |  |  | 
0.05 to 0.5 µM |  | 0.05 to 0.5 µM | > 1 µM | < 0.1 µM | 0.05 to 0.5 µM |  | Cc1cc(NC(=O)C(=O)N2C[C@H]3CC[C@H](C3)[C@H]2c2ccccc2)cnc1N (single isomer, unassigned) [Compound 65] | A (an IC50 ratio greater than or equal to 10 fold) | 1 to 10 µM |  |  | 
0.05 to 0.5 µM | 0.05 to 0.5 µM | 0.05 to 0.5 µM | 0.1 to 1 µM |  |  | < 0.1 µM | Cc1cc(NC(=O)C(=O)N2C[C@H](C)CC[C@H]2c2ccc(N3CCN(C)CC3)cc2)cnc1N (racemic) [Compound 1105, rac-N-(6-Amino-5-methyl-3-pyridyl)-2-[(2R,5S)-5-methyl-2-[4-(4-methylpiperazin-1-yl)phenyl]-1-piperidyl]-2-oxo-acetamide] |  | < 1 µM | A (an IC50 ratio greater than or equal to 10 fold) |  | 
> 0.5 µM | > 0.5 µM | > 0.5 µM | > 1 µM | > 1 µM |  |  | C[C@H]1CC[C@@H](c2cc(F)cc(Cl)c2)N(C(=O)C(=O)Nc2cncc(C(N)=O)c2)C1 (single isomer, unassigned) [Compound 624] | B (an IC50 ratio greater than or equal to 3 fold but lower than 10 fold) |  |  | > 10 µM | 
> 0.5 µM | > 0.5 µM | > 0.5 µM | > 1 µM |  |  | > 1 µM | Cc1cc(NC(=O)C(=O)N2C[C@@H](C)CC[C@@H]2c2ccc(NS(C)(=O)=O)cc2)cnc1N (single isomer, unassigned) [Compound 506] | B (an IC50 ratio greater than or equal to 3 fold but lower than 10 fold) | > 10 µM |  |  | 
0.05 to 0.5 µM |  | < 0.05 µM | > 1 µM | 0.1 to 1 µM | 0.05 to 0.5 µM |  | Cc1cc(NC(=O)C(=O)N2C[C@H](C)CC[C@H]2C(C)C)cnc1N (racemic) [Compound 165, N-(6-amino-5-methyl-3-pyridyl)-2-[(2S,5R)-2-isopropyl-5-methyl-1-piperidyl]-2-oxo-acetamide] | A (an IC50 ratio greater than or equal to 10 fold) | > 10 µM |  |  | 
< 0.05 µM | 0.05 to 0.5 µM | < 0.05 µM | > 1 µM |  |  | 0.1 to 1 µM | Cc1cc(NC(=O)C(=O)N2C[C@H](C)CC[C@H]2c2ccccc2)cnc1C (single isomer, unassigned) [Compound 254] | A (an IC50 ratio greater than or equal to 10 fold) | 1 to 10 µM |  |  | 
0.05 to 0.5 µM | 0.05 to 0.5 µM | < 0.05 µM | > 1 µM |  |  | > 1 µM | C[C@H]1CC[C@H](c2ccc(O)nc2)N(C(=O)C(=O)Nc2cncc(C(N)=O)c2)C1 (single isomer, unassigned) [Compound 350] | C (an IC50 ratio of less than 3 fold) | > 10 µM |  |  | 
> 0.5 µM | > 0.5 µM | > 0.5 µM | > 1 µM | > 1 µM |  |  | Cc1cc(NC(=O)C(=O)N2C[C@@H](C)CC[C@@H]2c2ccc(NCC(F)(F)F)cc2)cnc1N (single isomer, unassigned) [Compound 528] | B (an IC50 ratio greater than or equal to 3 fold but lower than 10 fold) |  |  | 1 to 10 µM | 
0.05 to 0.5 µM |  | 0.05 to 0.5 µM | > 1 µM | 0.1 to 1 µM | > 0.5 µM |  | NC(=O)c1cncc(NC(=O)C(=O)N2CCCCC2C2CCC(F)(F)CC2)c1 (stereo not shown) [Compound 170, 5-[[2-[2-(4,4-difluorocyclohexyl)-1-piperidyl]-2-oxo-acetyl]amino]pyridine-3-carboxamide] | A (an IC50 ratio greater than or equal to 10 fold) | > 10 µM |  |  | 
> 0.5 µM | > 0.5 µM | > 0.5 µM | > 1 µM |  |  | 0.1 to 1 µM | CCc1cc(NC(=O)C(=O)N2C[C@H](C)[C@H](OC)C[C@H]2c2ccc3scnc3c2)cnc1N (single isomer, unassigned) [Compound 1138] |  | 1 to 10 µM |  |  | 
0.05 to 0.5 µM | 0.05 to 0.5 µM | < 0.05 µM | > 1 µM |  |  | < 0.1 µM | CNc1cccc([C@@H]2CC[C@@H](C)CN2C(=O)C(=O)Nc2cncc(C(N)=O)c2)c1 (single isomer, unassigned) [Compound 348] | A (an IC50 ratio greater than or equal to 10 fold) | 1 to 10 µM |  |  | 
0.05 to 0.5 µM | 0.05 to 0.5 µM | < 0.05 µM | > 1 µM |  |  | 0.1 to 1 µM | Cc1c(NC(=O)C(=O)N2[C@@H](C)CCC[C@H]2c2ccccc2)cnc(N)c1C (single isomer, unassigned) [Compound 425] | A (an IC50 ratio greater than or equal to 10 fold) | 1 to 10 µM |  |  | 
0.05 to 0.5 µM | 0.05 to 0.5 µM | < 0.05 µM | < 0.1 µM | < 0.1 µM |  |  | Cc1cc(NC(=O)C(=O)N2C[C@@H](C)CC[C@@H]2c2ccc3sc(C(F)(F)F)nc3c2)cnc1N (single isomer, unassigned) [Compound 972] | B (an IC50 ratio greater than or equal to 3 fold but lower than 10 fold) | < 1 µM |  |  | 
> 0.5 µM | > 0.5 µM | > 0.5 µM | > 1 µM |  |  | > 1 µM | C[C@@H]1CC[C@@H](c2cc3[nH]ncc3s2)N(C(=O)C(=O)Nc2cncc(C(N)=O)c2)C1 (single isomer, unassigned) [Compound 868, 5-(2-(5-methyl-2-(1H-thieno[3,2-c]pyrazol-5-yl)piperidin-1-yl)-2-oxoacetamido)nicotinamide] | C (an IC50 ratio of less than 3 fold) |  |  |  | > 10 µM
> 0.5 µM |  | > 0.5 µM | > 1 µM |  | > 0.5 µM |  | Cc1cncc(NC(=O)C(=O)N2C[C@@H](C)CC[C@@H]2c2cccs2)c1 (single isomer, unassigned) [Compound 76] |  | > 10 µM |  |  | 
> 0.5 µM | > 0.5 µM | > 0.5 µM | > 1 µM |  |  | > 1 µM | Cc1cc([C@@H]2CC[C@@H](C)CN2C(=O)C(=O)Nc2cncc(C(N)=O)c2)ccc1F (single isomer, unassigned) [Compound 307] | C (an IC50 ratio of less than 3 fold) |  |  |  | 
> 0.5 µM | 0.05 to 0.5 µM | 0.05 to 0.5 µM | > 1 µM | > 1 µM |  |  | COc1ncc(NC(=O)C(=O)N2C[C@@H](C)CC[C@@H]2c2ccc(F)cc2)cc1C(F)F [Compound 1057, N-[5-(Difluoromethyl)-6-methoxy-3-pyridyl]-2-[(2R,5S)-2-(4-fluorophenyl)-5-methyl-1-piperidyl]-2-oxo-acetamide] | B (an IC50 ratio greater than or equal to 3 fold but lower than 10 fold) |  |  |  | 
> 0.5 µM | > 0.5 µM | > 0.5 µM | > 1 µM | > 1 µM |  |  | COc1ncc(NC(=O)C(=O)N2C[C@@H](C)C(F)(F)C[C@@H]2c2ccc(F)cc2)cc1C(N)=O (single isomer, unassigned) [Compound 1047] | C (an IC50 ratio of less than 3 fold) |  |  |  | 
> 0.5 µM | > 0.5 µM | > 0.5 µM | > 1 µM | > 1 µM |  |  | CCc1cc(NC(=O)C(=O)N2C[C@H](C)CC[C@H]2c2cc3cn[nH]c3s2)cnc1N (single isomer, unassigned) [Compound 1055] | B (an IC50 ratio greater than or equal to 3 fold but lower than 10 fold) |  |  |  | 
> 0.5 µM | > 0.5 µM | > 0.5 µM | > 1 µM |  |  | > 1 µM | CNc1cccc([C@H]2CC[C@H](C)CN2C(=O)C(=O)Nc2cncc(C(N)=O)c2)c1 (single isomer, unassigned) [Compound 321] | C (an IC50 ratio of less than 3 fold) |  |  |  | 
